# Data: patent US10000471B2, “Pyrazole P38 map kinase inhibitors” (Respivert Limited, priority 2010, dated 2018)
# How the values were obtained:
# [1] = tested on: IL-8 release in d-U937 cells; assay: LPS-induced IL-8 release in d-U937 cells; assay type: cell-based, human; details: Homo sapiens, dU937
# Summary of the method: (§1)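 Sandwich ELISA of TNFα and IL-8 in supernatants after 4 hr 0.1 μg/mL LPS (E. coli O111:B4) challenge of U937 cells differentiated with PMA 100 ng/ml for 48–72 hr, compound added 2 hr beforehand. IL-8: IC50 from inhibition versus vehicle; TNFα: REC50 from inhibition as percentage of 10 μg/mL BIRB796 effect.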
# [2] = tested on: TNFα release in d-U937 cells; assay: LPS-induced TNFα release in d-U937 cells; assay type: cell-based, human; details: Homo sapiens, dU937, relative to 10 μg/mL BIRB796, read-out: LPS/TNFα REC50 d-U937
# Summary of the method: as §1
# [3] = target: T1, p38 MAPKα isoform (MAPK14) (Homo sapiens, UniProt Q16539); assay: Enzyme inhibition assay (FRET, Z-LYTE), p38 MAPKα via MAPKAP-K2 activation; assay type: biochemical; details: read-out: Enzyme Inhibition IC50 p38α
# T1 construct: purchased Invitrogen
# Summary of the method: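 Z-LYTE FRET format, in which protease cleaves only non-phosphorylated peptide, read after 1 h development. Compound was mixed with p38 MAPKα for 2 h at RT, and inhibition was gauged from MAPKAP-K2 activation/phosphorylation rather than directly. Percent inhibition against an uninhibited control was fitted to give IC50.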
# [4] = tested on: Differentiated U937 cells; assay: Cell viability MTT assay; assay type: cell-based, human; details: negative = apparent increase in viability; for MTT Assay (Viability) 4 h d-U937, percentage loss of cell viability: 4 hr in 5% FCS; for MTT Assay (Viability) 24 h d-U937, percentage loss of cell viability: 24 h in 10% FCS
# Summary of the method: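 Differentiated U937 cells pre-incubated with compound either 4 hr in 5% FCS or 24 h in 10% FCS, then 1 hr MTT. Formazan dissolved in DMSO, absorbance at 550 nm. Percentage viability loss relative to 0.5% DMSO vehicle; apparent increases appear as negative percentages.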
# [5] = target: T2, p38 MAPKγ (MAPK12) (Homo sapiens, UniProt P53778); assay: Enzyme inhibition assay (FRET, Z-LYTE), p38 MAPKγ; assay type: biochemical; details: read-out: Enzyme Inhibition IC50 p38γ
# T2 construct: purchased Invitrogen
# T2 sequence (P53778 1-367): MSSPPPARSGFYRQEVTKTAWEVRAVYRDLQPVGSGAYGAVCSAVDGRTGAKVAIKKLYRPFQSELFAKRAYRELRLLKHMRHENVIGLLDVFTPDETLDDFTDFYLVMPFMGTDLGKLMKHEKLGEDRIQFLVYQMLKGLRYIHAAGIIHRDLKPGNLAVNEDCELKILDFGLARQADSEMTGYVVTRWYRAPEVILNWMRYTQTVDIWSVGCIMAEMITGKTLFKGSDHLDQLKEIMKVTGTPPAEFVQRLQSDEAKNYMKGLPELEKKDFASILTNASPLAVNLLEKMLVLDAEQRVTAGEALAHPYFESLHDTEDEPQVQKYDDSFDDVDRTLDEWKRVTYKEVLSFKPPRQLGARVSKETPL
# Summary of the method: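 Z-LYTE FRET readout: after 1 h kinase reaction (ATP 100 μM, peptide 2 μM) following 2 h RT enzyme–compound preincubation in HEPES, protease cleaves only unphosphorylated peptide. Percent inhibition from donor/acceptor ratio relative to control; IC50 fitted from the curve.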
# [6] = tested on: TNFα release in THP-1 cells; assay: LPS-induced TNFα release in THP-1 cells; assay type: cell-based, human; details: Homo sapiens
# Summary of the method: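 IC50 derived from concentration-response of TNFα inhibition relative to vehicle, with TNFα quantified by sandwich ELISA in supernatants. THP-1 cells were challenged 4 hr with LPS (E. coli, 3 μg/mL).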
# [7] = tested on: ICAM-1 induction in BEAS2B cells; assay: Poly I:C-induced ICAM-1 induction in BEAS2B cells; assay type: cell-based, human; details: Homo sapiens, BEAS-2B, read-out: PolyIC/ICAM1 IC50 BEAS2B
# Summary of the method: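 IC50 reflects inhibition of cell-surface ICAM-1 relative to vehicle, read by ELISA (OD450 against 655 nm) and divided by crystal violet OD595 for cell number. Readings were taken 18 hr after transfection of 1 μg/mL poly I:C into BEAS2B cells. Compound was added 2 hr before stimulation.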
# T1 sequence (Q16539 whole entry, canonical isoform): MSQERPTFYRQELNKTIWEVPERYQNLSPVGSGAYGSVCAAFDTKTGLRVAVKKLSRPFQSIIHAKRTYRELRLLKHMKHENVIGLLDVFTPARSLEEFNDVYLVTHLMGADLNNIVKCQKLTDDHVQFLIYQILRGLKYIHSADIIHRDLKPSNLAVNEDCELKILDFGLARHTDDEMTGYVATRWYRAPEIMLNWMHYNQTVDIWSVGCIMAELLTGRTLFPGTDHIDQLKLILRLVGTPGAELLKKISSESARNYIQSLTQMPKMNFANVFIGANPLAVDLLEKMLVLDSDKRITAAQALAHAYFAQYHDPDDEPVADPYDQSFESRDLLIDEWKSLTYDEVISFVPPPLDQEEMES
IC50 [1] [nM],EC50 [2] [nM],IC50 [3] [nM],IC50 [5] [nM],IC50 [6] [nM],SMILES,"MTT Assay (Viability) 4 h d-U937, percentage loss of cell viability [4] [%]","MTT Assay (Viability) 24 h d-U937, percentage loss of cell viability [4] [%]",IC50 [7] [nM]
9.6,1.4,13.8,27,1.2,"COc1cc(-n2nc(C(C)(C)C)cc2NC(=O)Nc2ccc(Oc3ccnc(NC(=O)N4CC[C@H](N(C)C)C4)c3)c(Cl)c2Cl)ccc1CO [Example 84, (S)-N-(4-(4-(3-(3-tert-butyl-1-(4-hydroxymethyl-3-methoxyphenyl)-1H-pyrazol-5-yl)ureido)-2,3-dichlorophenoxy)pyridin-2-yl)-3-(dimethylamino)pyrrolidine-1-carboxamide]",3.2,56.7,2.6
1.9,0.2,21.2,152,2.6,"CNC(=O)Nc1nccc(Oc2ccc(NC(=O)Nc3cc(C(C)(C)C)nn3-c3ccc(C)cc3)c(Cl)c2Cl)n1 [Example 96, 1-(3-tert-butyl-1-p-tolyl-1H-pyrazol-5-yl)-3-(2,3-dichloro-4-(2-(3-methylureido)pyrimidin-4-yloxy)phenyl)urea]",−16.1,−13.4,30
21.6,0.6,17,123,1,"COCC(=O)Nc1nccc(Oc2ccc(NC(=O)Nc3cc(C(C)(C)C)nn3-c3ccc(CO)cc3)c(Cl)c2Cl)n1 [Example 94, N-(4-(4-(3-(3-tert-butyl-1-(4-hydroxymethylphenyl)-1H-pyrazol-5-yl)ureido)-2,3-dichlorophenoxy)pyrimidin-2-yl)-2-methoxyacetamide]",2.3,76.6,8.9
1.1,0.9,20.9,38.7,0.3,"CN(C)CC(=O)Nc1cc(Oc2ccc(NC(=O)Nc3cc(C(C)(C)C)nn3-c3ccc(CO)cc3)c(Cl)c2Cl)ccn1 [Example 46, N-(4-(4-(3-(3-tert-butyl-1-(4-hydroxymethylphenyl)-1H-pyrazol-5-yl)ureido)-2,3-dichlorophenoxy)pyridin-2-yl)-2-(dimethylamino) acetamide]",−12.6,82.7,2.4
264,176,154,290,143,"COCC(=O)Nc1cc(Oc2ccc(NC(=O)Nc3cc(C(C)(C)C)nn3-c3ccc(C)cc3)cc2S(C)(=O)=O)ccn1 [Example 31, N-(4-(4-(3-(3-tert-butyl-1-p-tolyl-1H-pyrazol-5-yl)ureido)-2-methylsulfonylphenoxy)pyridin-2-yl)-2-methoxyacetamide]",1.1,49.3,108
2.7,1.9,32.5,101,1.4,"CNC(=O)Nc1nccc(Oc2ccc(NC(=O)Nc3cc(C(C)(C)C)nn3-c3ccc(OC)cc3)c(Cl)c2Cl)n1 [Example 98, 1-(3-tert-butyl-1-(4-methoxyphenyl)-1H-pyrazol-5-yl)-3-(2,3-dichloro-4-(2-(3-methylureido)pyrimidin-4-yloxy)phenyl) urea]",−25.9,−29.3,4.1
5.8,1.7,27.9,67.8,1.2,"COCCNC(=O)Nc1cc(Oc2ccc(NC(=O)Nc3cc(C(C)(C)C)nn3-c3ccc(OC)cc3)c(Cl)c2Cl)ccn1 [Example 67, 1-(4-(4-(3-(3-tert-butyl-1-(4-methoxyphenyl)-1H-pyrazol-5-yl)ureido)-2,3-dichlorophenoxy)pyridin-2-yl)-3-(2-methoxyethyl)urea]",−11.4,40.9,2
10.3,0.2,18.2,137,1.4,"COc1ccc(-n2nc(C(C)(C)C)cc2NC(=O)Nc2ccc(Oc3ccnc(NC(=O)NCCN4CCOCC4)c3)c(Cl)c2Cl)cc1 [Example 68, 1-(4-(4-(3-(3-tert-butyl-1-(4-methoxyphenyl)-1H-pyrazol-5-yl)ureido)-2,3-dichlorophenoxy)pyridin-2-yl)-3-(2-morpholinoethyl)urea]",11.3,73.3,3.3
70.2,40.8,17,33.1,6.1,"COCC(=O)Nc1cc(COc2ccc(NC(=O)Nc3cc(C(C)(C)C)nn3-c3ccc(C)cc3)c(Cl)c2Cl)ccn1 [Example 14, N-(4-((4-(3-(3-tert-Butyl-1-p-tolyl-1H-pyrazol-5-yl)ureido)-2,3-dichlorophenoxy)methyl)pyridin-2-yl)-2-methoxyacetamide]",−7.9,49.6,32.2
50.6,0.4,18.7,1360,1.4,"COCC(=O)Nc1cc(Oc2ccc(NC(=O)Nc3cc(C(C)(C)C)nn3-c3ccc(C)cc3)c3c2CCCC3)ccn1 [Example 5, N-(4-(4-(3-(3-tert-Butyl-1-p-tolyl-1H-pyrazol-5-yl)ureido)-5,6,7,8-tetrahydronaphthalen-1-yloxy)pyridin-2-yl)-2-methoxyacetamide]",−3.5,18.7,21.9
33.8,1.5,7.6,20.6,1.1,CN(C)CCCC(=O)Nc1cc(Oc2ccc(NC(=O)Nc3cc(C(C)(C)C)nn3-c3ccc(CO)cc3)c(Cl)c2Cl)ncn1 [Example 22],−20.9,85.2,4.9
3.9,0.1,6.7,57.9,1.6,"COCC(=O)Nc1cc(Oc2ccc(NC(=O)Nc3cc(C(C)(C)C)nn3-c3ccc(C)cc3)c3cccnc23)ccn1 [Example 6, N-(4-(5-(3-(3-tert-butyl-1-p-tolyl-1H-pyrazol-5-yl)ureido)quinolin-8-yloxy)pyridin-2-yl)-2-methoxyacetamide]",−21.3,−14.6,7.2
1060,69.5,30.7,> 15300,45.2,"COc1ccc(-n2nc(C(C)(C)C)cc2NC(=O)Nc2ccc(OCc3ccnc(NC(=O)N4CCCC4)c3)c(Cl)c2Cl)cc1 [Example 20, N-(4-((4-(3-(3-tert-Butyl-1-(4-methoxyphenyl)-1H-pyrazol-5-yl)ureido)-2,3-dichlorophenoxy)methyl)pyridin-2-yl)pyrrolidine-1-carboxamide]",−19.1,9.6,16.5
